Test results taken from ChEMBL document CHEMBL5465560, “Selectivity Literature for EUbOPEN Chemogenomic Library” (2024).

Assays:
[1] = target: Tyrosine-protein kinase Fer (Homo sapiens) (UniProt P16591); test: Selectivity interaction (Kinase panel (KiNativ target engagement assay in Jurkat cells)) EUB0001635a FER; format: cell-based; conditions: Selectivity number of off-targets 0.0, Selectivity number of targets 233.0, Source Knowledge https://www.sciencedirect.com/science/article/pii/S2451945619300674?via%3Dihub, at 1 µM
Tyrosine-protein kinase Fer (Homo sapiens), sequence (P16591 whole entry, looked up): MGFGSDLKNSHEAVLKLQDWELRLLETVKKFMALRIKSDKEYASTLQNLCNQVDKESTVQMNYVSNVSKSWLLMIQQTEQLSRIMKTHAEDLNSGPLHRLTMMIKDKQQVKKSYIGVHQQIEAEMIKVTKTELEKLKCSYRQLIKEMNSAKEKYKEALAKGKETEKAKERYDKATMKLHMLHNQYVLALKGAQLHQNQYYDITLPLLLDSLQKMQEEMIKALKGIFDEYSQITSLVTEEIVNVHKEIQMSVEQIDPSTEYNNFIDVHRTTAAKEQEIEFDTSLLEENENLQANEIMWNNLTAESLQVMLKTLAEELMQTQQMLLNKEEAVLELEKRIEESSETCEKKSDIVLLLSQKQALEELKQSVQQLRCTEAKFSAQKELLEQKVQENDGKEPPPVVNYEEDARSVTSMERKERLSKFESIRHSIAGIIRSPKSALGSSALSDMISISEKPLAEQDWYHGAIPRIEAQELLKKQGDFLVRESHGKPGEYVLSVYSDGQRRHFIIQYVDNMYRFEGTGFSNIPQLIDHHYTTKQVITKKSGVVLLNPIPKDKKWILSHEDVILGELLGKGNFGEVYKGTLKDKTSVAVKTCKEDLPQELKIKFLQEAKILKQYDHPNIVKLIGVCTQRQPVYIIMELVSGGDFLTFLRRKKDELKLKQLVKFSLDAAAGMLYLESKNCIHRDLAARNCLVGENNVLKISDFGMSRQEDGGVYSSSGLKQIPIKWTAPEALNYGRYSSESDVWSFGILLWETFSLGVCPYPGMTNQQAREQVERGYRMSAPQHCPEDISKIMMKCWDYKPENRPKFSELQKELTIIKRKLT

[2] = target: Angiopoietin-1 receptor (Homo sapiens) (UniProt Q02763); test: Selectivity interaction (KinomeScan (DiscoverX)) EUB0000595a TEK; conditions: at 10 µM
Angiopoietin-1 receptor (Homo sapiens), sequence (Q02763 whole entry): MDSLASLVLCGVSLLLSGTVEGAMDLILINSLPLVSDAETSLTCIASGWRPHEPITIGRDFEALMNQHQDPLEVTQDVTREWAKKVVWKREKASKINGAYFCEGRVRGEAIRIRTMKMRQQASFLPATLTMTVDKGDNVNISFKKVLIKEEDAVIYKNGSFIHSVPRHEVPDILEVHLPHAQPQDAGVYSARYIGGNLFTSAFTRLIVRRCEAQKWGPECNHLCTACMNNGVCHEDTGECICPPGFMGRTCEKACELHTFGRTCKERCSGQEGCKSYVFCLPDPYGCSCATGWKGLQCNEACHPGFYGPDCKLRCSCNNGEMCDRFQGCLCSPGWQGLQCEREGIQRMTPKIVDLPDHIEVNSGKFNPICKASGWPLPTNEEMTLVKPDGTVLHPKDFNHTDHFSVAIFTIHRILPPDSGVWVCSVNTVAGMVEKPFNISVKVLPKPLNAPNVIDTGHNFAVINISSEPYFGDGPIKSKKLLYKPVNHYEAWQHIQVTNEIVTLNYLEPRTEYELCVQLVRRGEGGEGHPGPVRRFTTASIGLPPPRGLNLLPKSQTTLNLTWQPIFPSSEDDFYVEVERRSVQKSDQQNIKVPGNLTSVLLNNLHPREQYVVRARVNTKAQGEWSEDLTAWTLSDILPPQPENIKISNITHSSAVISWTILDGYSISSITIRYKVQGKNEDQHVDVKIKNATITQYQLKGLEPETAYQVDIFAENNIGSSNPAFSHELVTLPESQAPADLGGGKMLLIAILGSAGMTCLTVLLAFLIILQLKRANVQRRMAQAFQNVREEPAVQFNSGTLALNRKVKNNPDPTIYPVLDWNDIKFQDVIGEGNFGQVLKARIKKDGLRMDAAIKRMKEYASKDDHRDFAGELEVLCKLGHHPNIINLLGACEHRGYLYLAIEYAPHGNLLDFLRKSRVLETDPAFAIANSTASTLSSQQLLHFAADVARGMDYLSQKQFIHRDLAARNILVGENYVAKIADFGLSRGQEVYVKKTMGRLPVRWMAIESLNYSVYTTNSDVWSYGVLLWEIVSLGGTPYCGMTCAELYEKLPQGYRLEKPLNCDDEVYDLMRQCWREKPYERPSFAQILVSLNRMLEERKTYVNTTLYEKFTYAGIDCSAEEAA

[3] = target: Serine/threonine-protein kinase B-raf (Homo sapiens) (UniProt P15056); test: (§1) Selectivity interaction (KinomeScan (DiscoverX)) EUB0000045b BRAF
Serine/threonine-protein kinase B-raf (Homo sapiens), sequence (P15056 whole entry): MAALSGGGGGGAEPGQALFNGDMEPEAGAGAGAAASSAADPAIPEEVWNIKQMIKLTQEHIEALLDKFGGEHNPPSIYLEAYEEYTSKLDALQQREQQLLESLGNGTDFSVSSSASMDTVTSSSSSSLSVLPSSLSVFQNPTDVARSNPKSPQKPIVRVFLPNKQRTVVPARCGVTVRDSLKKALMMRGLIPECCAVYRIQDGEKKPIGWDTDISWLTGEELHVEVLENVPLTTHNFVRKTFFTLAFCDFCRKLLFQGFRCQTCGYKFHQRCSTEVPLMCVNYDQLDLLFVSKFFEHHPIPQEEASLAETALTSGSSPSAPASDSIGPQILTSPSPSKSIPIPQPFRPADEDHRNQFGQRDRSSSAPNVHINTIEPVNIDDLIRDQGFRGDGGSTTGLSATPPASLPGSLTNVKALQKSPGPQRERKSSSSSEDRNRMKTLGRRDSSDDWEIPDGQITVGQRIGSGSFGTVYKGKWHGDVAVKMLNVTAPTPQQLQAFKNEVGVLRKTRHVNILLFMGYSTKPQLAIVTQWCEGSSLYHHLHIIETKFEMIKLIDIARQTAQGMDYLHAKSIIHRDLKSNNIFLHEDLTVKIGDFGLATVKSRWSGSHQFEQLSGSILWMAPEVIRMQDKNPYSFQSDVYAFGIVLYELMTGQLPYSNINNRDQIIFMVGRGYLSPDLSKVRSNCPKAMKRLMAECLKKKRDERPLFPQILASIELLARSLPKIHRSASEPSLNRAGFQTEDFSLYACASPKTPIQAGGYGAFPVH

[4] = test system: Serine/threonine-protein kinase B-raf (Homo sapiens), P15056 [V600E]; test: as §1
Serine/threonine-protein kinase B-raf (Homo sapiens), P15056 [V600E], sequence (P15056 whole entry V600E): as the sequence (P15056 whole entry) above, with V600E counted along it

[5] = target: Casein kinase II subunit alpha' (Homo sapiens) (UniProt P19784); test: Selectivity interaction (Kinase panel (Z-LYTE Assay)) EUB0001632a CSNK2A2; conditions: at 10 µM
Casein kinase II subunit alpha' (Homo sapiens), sequence (P19784 whole entry, looked up): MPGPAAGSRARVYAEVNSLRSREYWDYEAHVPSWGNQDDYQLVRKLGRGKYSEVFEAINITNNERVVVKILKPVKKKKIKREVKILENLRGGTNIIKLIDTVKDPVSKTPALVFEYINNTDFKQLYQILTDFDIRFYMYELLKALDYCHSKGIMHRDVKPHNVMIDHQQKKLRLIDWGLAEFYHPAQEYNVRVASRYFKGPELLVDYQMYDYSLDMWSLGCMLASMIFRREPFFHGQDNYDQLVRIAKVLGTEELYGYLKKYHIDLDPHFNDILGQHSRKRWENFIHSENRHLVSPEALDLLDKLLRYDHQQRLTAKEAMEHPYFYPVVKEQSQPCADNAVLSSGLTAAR

[6] = target: Receptor tyrosine-protein kinase erbB-2 (Homo sapiens, UniProt P04626); test: Selectivity interaction (Kinase panel (Z-LYTE Assay)) EUB0001632a ERBB2; conditions: at 10 µM
Receptor tyrosine-protein kinase erbB-2, sequence (P04626 whole entry): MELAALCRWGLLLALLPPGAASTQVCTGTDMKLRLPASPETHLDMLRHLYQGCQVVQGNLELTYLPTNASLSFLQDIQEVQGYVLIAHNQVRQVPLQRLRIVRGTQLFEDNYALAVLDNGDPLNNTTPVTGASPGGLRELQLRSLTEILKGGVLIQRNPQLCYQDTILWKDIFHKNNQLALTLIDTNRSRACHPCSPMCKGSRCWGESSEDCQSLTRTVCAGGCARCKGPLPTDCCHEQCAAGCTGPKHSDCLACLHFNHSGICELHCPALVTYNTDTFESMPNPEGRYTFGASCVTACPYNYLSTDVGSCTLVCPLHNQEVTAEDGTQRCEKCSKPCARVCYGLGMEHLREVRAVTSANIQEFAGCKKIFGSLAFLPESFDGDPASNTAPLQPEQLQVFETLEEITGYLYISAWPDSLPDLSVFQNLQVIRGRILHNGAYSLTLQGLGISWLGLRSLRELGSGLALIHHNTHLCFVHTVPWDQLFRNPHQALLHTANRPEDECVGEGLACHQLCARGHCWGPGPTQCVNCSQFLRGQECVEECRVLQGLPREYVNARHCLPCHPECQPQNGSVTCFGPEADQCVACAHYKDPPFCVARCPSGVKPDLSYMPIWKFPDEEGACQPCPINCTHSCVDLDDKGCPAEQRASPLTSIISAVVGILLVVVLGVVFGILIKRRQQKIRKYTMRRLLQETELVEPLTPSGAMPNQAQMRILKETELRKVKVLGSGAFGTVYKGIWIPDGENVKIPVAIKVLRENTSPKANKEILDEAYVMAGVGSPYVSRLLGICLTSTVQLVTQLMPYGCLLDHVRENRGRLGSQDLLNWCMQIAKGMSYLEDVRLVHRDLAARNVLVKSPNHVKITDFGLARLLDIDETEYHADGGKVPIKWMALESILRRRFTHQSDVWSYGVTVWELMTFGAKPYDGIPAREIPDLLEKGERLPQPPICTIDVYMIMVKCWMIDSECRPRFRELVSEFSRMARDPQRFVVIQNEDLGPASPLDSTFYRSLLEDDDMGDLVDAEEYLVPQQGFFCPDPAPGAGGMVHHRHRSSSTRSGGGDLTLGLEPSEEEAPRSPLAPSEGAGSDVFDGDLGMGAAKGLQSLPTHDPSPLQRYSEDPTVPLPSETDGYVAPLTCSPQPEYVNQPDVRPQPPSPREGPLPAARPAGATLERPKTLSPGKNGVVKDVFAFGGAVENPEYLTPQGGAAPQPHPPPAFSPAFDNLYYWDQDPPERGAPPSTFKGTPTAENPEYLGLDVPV

[7] = target: T1, Mitogen-activated protein kinase kinase kinase 19 (Homo sapiens) (UniProt Q56UN5); test: Selectivity interaction (KinomeScan (DiscoverX)) EUB0001868a MAP3K19; conditions: at 1 µM
T1 sequence (whole entry): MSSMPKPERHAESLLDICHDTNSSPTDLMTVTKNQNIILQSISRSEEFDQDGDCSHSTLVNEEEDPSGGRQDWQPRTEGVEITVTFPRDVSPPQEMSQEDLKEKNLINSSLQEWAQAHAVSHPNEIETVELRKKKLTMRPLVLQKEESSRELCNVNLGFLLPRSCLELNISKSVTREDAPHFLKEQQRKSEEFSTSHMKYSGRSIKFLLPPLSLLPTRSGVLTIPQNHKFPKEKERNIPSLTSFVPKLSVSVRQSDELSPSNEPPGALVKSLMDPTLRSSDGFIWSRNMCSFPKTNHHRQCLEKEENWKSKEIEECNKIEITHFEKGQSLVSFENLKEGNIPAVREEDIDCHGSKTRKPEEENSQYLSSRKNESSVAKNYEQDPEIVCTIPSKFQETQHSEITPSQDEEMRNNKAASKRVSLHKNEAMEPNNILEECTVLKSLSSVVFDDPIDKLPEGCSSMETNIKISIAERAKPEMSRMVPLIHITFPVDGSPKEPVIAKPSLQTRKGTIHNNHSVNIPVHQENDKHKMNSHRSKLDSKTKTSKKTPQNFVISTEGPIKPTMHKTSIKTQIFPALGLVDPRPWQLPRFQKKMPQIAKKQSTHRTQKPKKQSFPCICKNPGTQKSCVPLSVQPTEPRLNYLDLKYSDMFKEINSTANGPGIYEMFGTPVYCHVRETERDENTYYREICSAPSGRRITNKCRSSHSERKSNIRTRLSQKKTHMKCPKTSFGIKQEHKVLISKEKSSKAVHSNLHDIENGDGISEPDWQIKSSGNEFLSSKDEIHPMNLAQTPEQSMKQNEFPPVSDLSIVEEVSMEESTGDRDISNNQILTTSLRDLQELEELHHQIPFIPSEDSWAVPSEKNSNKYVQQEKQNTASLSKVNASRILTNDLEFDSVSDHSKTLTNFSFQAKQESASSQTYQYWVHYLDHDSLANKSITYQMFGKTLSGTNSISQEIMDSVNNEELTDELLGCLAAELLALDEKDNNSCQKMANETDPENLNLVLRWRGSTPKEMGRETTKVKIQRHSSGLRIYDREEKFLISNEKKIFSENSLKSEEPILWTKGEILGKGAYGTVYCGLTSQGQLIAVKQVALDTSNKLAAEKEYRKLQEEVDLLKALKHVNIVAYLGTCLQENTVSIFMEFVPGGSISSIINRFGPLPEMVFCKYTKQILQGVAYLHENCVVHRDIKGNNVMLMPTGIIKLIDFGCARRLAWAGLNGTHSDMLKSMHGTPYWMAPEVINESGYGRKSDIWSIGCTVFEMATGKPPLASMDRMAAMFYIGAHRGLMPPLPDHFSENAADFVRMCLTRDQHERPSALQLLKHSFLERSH

[8] = target: Serine/threonine-protein kinase 38 (Homo sapiens) (UniProt Q15208); test: Selectivity interaction (KinomeScan (DiscoverX)) EUB0001619a STK38; conditions: at 1 µM
Serine/threonine-protein kinase 38 (Homo sapiens), sequence (Q15208 2-465 limits assumed): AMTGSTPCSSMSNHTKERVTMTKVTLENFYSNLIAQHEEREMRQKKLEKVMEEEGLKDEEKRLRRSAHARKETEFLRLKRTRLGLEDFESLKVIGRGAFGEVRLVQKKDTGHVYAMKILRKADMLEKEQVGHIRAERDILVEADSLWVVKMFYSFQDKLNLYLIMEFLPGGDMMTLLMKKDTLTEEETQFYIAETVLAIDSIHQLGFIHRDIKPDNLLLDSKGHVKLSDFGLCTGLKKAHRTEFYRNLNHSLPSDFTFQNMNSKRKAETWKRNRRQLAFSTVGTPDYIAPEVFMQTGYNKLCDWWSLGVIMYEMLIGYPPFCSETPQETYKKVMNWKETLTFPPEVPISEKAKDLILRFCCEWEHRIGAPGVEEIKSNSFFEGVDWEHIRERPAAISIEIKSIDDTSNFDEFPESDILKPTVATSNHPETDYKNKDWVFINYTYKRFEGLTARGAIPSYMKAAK

[9] = target: T2, Serine/threonine-protein kinase LATS2 (Homo sapiens) (UniProt Q9NRM7); conditions: at 10 µM
T2 sequence (whole entry): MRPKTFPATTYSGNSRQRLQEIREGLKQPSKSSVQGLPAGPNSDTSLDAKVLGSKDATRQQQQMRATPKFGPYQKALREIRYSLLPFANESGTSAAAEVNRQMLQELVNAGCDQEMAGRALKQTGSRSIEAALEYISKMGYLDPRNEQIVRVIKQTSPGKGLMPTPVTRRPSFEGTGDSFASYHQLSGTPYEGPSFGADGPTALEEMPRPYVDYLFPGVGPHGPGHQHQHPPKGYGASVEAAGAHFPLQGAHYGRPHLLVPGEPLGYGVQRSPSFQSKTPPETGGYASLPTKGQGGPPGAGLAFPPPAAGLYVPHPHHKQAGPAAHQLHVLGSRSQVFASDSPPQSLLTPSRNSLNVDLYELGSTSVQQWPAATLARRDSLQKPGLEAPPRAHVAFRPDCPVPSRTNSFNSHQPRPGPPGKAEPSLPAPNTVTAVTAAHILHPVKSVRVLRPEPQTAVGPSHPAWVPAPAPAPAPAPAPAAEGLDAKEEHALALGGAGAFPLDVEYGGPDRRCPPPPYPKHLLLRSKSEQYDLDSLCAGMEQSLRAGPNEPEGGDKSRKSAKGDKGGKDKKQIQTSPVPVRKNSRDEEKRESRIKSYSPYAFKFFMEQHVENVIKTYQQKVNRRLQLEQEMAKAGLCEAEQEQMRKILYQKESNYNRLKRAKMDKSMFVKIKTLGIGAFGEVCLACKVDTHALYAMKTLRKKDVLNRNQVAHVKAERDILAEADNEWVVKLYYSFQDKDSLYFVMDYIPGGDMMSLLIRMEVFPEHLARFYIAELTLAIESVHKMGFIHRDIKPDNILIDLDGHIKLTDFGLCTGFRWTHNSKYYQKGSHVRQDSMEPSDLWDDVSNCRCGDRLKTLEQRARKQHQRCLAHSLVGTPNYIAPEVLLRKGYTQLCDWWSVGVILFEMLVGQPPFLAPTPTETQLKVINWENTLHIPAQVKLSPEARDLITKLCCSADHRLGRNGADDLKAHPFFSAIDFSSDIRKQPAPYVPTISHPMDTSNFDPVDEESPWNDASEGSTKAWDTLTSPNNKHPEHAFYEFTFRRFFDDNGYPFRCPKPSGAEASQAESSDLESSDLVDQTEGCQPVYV

C=CC(=O)Nc1ccc(C(=O)Nc2[nH]nc3c2CN(C(=O)N[C@H](CN(C)C)c2ccccc2)C3(C)C)cc1 was tested, and the % of engagement [1] was -6.9%.
For COCC(=O)NC/C=C/c1ccc2ncnc(Nc3ccc(Oc4ccc(C)nc4)c(C)c3)c2c1 [CP-724714], the % of control [2] was 100%.
C=CC(=O)Nc1cc(-n2c(=O)ccc3cnc4ccc(-c5ccc(NS(C)(=O)=O)cc5)cc4c32)ccc1C gave a % of control ([3]; at 1 µM) of 100%, a % of control ([3]; at 10 µM) of 100% and a % of control ([4]; at 1 µM) of 100%. It also gave a % of control ([4]; at 10 µM) of 100%.
In the case of Cn1cc(-n2cnc3c(NCc4nc5cc(Cl)c(Cl)cc5[nH]4)nc(N4CCOCC4)nc32)cn1, the % of control [5] was 1.8% and the % of control [6] was -0.819%.
For Cc1cc(-c2ccnc(Nc3cnn(C)c3)n2)ccc1CNC(=O)N1CC(OC(C)C)C1, the % of control [7] was 9%.
For N#Cc1cccc(-c2c[nH]c3ncnc(N4CCOCC4)c23)c1, the % of control [8] was 89%.
Work on CCN(CC)CCCCNc1ncc2cc(-c3cc(OC)cc(OC)c3)c(NC(=O)NC(C)(C)C)nc2n1 yielded a % of control [9] of 100%.
